Several values for one entry are separate records, joined by “and”; a condition that tells them apart may be missing. Equal entries are not always repeated.
Columns and labels:
Type in all cases: in vivo
Meloidogyne incognita = experiment: Vine field trial, number of nematodes in soil after foliar (I-2) or drench (imidacloprid) application; settings: for Activity against Meloidogyne incognita, number of nematodes, 0 d: vines Thompson Seedless, prior to treatment, (I-2) SC 240 12.5 fl oz per 605 plants foliar, imidacloprid SC 550 14 fl oz drench; for Activity against Meloidogyne incognita, number of nematodes, 30 d / Activity against Meloidogyne incognita, number of nematodes, 60 d: vines, (I-2) 12.5 fl oz per 605 plants foliar (2 applications, 32 d interval), imidacloprid 14 fl oz drench; for Activity against Meloidogyne incognita, number of nematodes, 30 d: 30 days after first treatment; for Activity against Meloidogyne incognita, number of nematodes, 60 d: 60 days after first treatment
Protocol: (§1) In 5 replications, in each case 15 vines of the cultivar “Thompson Seedless 1948” are treated against soil-dwelling nematodes using a fogger. Here, a tank mix of the active compound (I-2) (SC 240) is applied after foliar application at the stated application rates with 0.25% of the adjuvant Activator 90, in comparison to imidacloprid (SC 550) after drench application by micro-irrigation injection. The water application rate is 75 gallons per acre=605 plants. Two applications of active compound (I-2) are carried out at an interval of 32 days.
(§2) Evaluation is carried out prior to the treatment and 30 days and 60 days after the first treatment by counting the number of nematodes in 500 g of soil.

Pratylenchus sp. = experiment: as above; settings: vines, (I-2) 12.5 fl oz per 605 plants foliar, imidacloprid 14 fl oz drench; for Activity against Pratylenchus sp., number of nematodes, 30 d: 30 days after first treatment; for Activity against Pratylenchus sp., number of nematodes, 60 d: 60 days after first treatment; for Activity against Pratylenchus sp., number of nematodes, 0 d: prior to treatment
Protocol: as §1, §2

Mesocriconema xenoplax = experiment: as above; settings: vines, (I-2) 12.5 fl oz per 605 plants foliar, imidacloprid 14 fl oz drench; for Activity against Mesocriconema xenoplax, number of nematodes, 30 d: 30 days after first treatment; for Activity against Mesocriconema xenoplax, number of nematodes, 60 d: 60 days after first treatment; for Activity against Mesocriconema xenoplax, number of nematodes, 0 d: prior to treatment
Protocol: as §1, §2

Meloidogyne arenaria = experiment: Tomato pot trial, root-knot nematode galling index and eggs per root system; settings: for Galling index: 78 d after first treatment, mean; for Appearance of root system (galls, egg masses, rot): visual, at harvest
Protocol: The experiment is carried out in a shade house at a temperature of around 78 F (76-80 F). The experiment is conduced in a complete randomize design with seven treatments and six replications. 6 inch pots are filled with 1,500 g of steam pasteurized (194 F for 2:30 h) field soil per pot and a 4 weeks old tomato cv. Rutgers transplant is added. The soil is an Arredondo fine sand with ca. 92% sand and 1% om. The soil is taken from a site with no history of root-knot nematode infestation.
The first preventive treatments of Vydate CLV and (I-2) (SC 240; adjuvant: Dyne-Amic (a blend of nonionic and organosilicone surfactants and MSO), 99% active w/v, added 0.25% v/v) are applied as foliar spray. Fosthiazate 900 is applied as a soil drench in 40 gallons water per acre. The second preventive application of Vydate and (I-2) are sprayed over foliage 7 days after l^st treatment. The soil is inoculated by adding 5,000 eggs/pot of Meloidogyne arenaria one day after the 2nd treatment. The curative treatments of Vydate and (I-2) are applied as a foliar spray on 21 and 28 days after inoculation with Meloidogyne arenaria.
All (I-2) and Vydate treatments are applied in 40 gallons of water/acre by a CO2 pressurized sprayer with a single 8003 VS TeeJet noozle. The tomato plants for each treatment are lined up in a row with the spray directed over their foliage until noticeable drip.
78 days after the 1st treatment the plants are harvested. Each root system is evaluated for the percentage of root-knot nematode galling and eggs per root system. A 1 to 6 scale is used for estimating the number galls per root system as follows: 1=no galls on the root system; 2=10%; 3=11 to 30%; 4=31 to 70%; 5=71 to 90%; 6=100% root system galled. Following the determination of percentage of galling the roots are processed in a bleach solution to dissolve away the gelatinous matrix surrounding the eggs. Individual eggs are collection on a 500 mesh sieve and poured into a counting dish for determining their numbers.

[1] = tested on: Tylenchulus semipenetrans; experiment: Foliar application of (I-2) to citrus in pots for control of Tylenchulus semipenetrans; settings: individual trees
Protocol: Foliar Application of (I-2) to Citrus in Pots for Control of Tylenchulus semipenetrans
Treatments: 15 trees sprayed with (I-2=Movento), 15 trees sprayed with water (presample each pot); 25 mL/tree
Add Tylenchulus semipenetrans larvae to all pots. The following day take trees out of greenhouse. Cover top of pot to exclude spray from soil. (I-2) (SC 240) is sprayed in a concentration of 2.6 ml plus 2.5 ml adjuvant MSO (methylated seed oil), (100% active w/v, added to the spray solution at 0.25% v/v) per liter sprac solution. Spray canopy from two sides of trees to runoff with a 2 gallon “Sure Spray” pump sprayer (Chapin Mfg.) using a nozzle that delivers a cone shape spray pattern. Allow material to dry before returning plants to greenhouse. Repeat in 14 days.
For this citrus nematode trial, 5-year old Volkamer lemon seedlings are infested with T. semipenetrans obtained from the field and maintained in the greenhouse (25-32° C.) for use in pesticide trials. Trees used in the experiment are not treated with nematicidal compounds. The seedlings are growing in a 50:50 mixture of Astatula sand (97% sand) and Pro-mix potting mixture in rectangular pots (10×10×30 cm). Trees are irrigated normally, but receive no fertilizer or pesticide treatments other than (I-2) during the experiment. Effects on citrus nematode are evaluated by soil sampling 30 days and 60 days after treatment.
Tylenchulus semipenetrans raw data (juvenile and male nematodes per […] soil. Pi is initial population before treatment, Pf is final population at one and two months post treatment).

[2] = preventive treatment, tomato cv. Rutgers, scale 1 to 6 (1 = no galls, 6 = 100% of root system galled)
[3] = preventive treatment, tomato, 5,000 eggs/pot inoculated

O=[N+]([O-])NC1=NCCN1Cc1ccc(Cl)nc1 [Imidacloprid, reference compound]
Activity against Meloidogyne incognita, number of nematodes, 0 d (Meloidogyne incognita): 267 nematodes in 500 g of soil
Activity against Meloidogyne incognita, number of nematodes, 30 d (Meloidogyne incognita): 171 nematodes in 500 g of soil
Activity against Meloidogyne incognita, number of nematodes, 60 d (Meloidogyne incognita): 188 nematodes in 500 g of soil
Activity against Pratylenchus sp., number of nematodes, 30 d (Pratylenchus sp.): 320 nematodes in 500 g of soil
Activity against Pratylenchus sp., number of nematodes, 60 d (Pratylenchus sp.): 319.6 nematodes in 500 g of soil
Activity against Pratylenchus sp., number of nematodes, 0 d (Pratylenchus sp.): 406 nematodes in 500 g of soil
Activity against Mesocriconema xenoplax, number of nematodes, 30 d (Mesocriconema xenoplax): 808.4 nematodes in 500 g of soil
Activity against Mesocriconema xenoplax, number of nematodes, 60 d (Mesocriconema xenoplax): 958.46 nematodes in 500 g of soil
Activity against Mesocriconema xenoplax, number of nematodes, 0 d (Mesocriconema xenoplax): 1863 nematodes in 500 g of soil

CCOC(=O)OC1=C(c2cc(C)ccc2C)C(=O)N[C@]12CC[C@@H](OC)CC2 [(I-2)]
Number of eggs/root system 78 d after first treatment (Meloidogyne arenaria; curative treatment (21 and 28 days after inoculation), tomato): 141,000 eggs/root system
Galling index (Meloidogyne arenaria; curative treatment (21 and 28 days after inoculation), tomato, scale 1 to 6): 4.5
Appearance of root system (galls, egg masses, rot) (Meloidogyne arenaria; curative treatment): little darkening or rotting appearance
Galling index (Meloidogyne arenaria; [2]): 6.0
Number of eggs/root system 78 d after first treatment (Meloidogyne arenaria; [3]): 421,600 eggs/root system
Appearance of root system (galls, egg masses, rot) (Meloidogyne arenaria; preventive treatment): numerous egg masses and coalesced galls
Activity against Meloidogyne incognita, number of nematodes, 0 d (Meloidogyne incognita): 312 nematodes in 500 g of soil
Activity against Meloidogyne incognita, number of nematodes, 30 d (Meloidogyne incognita): 140.8 nematodes in 500 g of soil
Activity against Meloidogyne incognita, number of nematodes, 60 d (Meloidogyne incognita): 178.8 nematodes in 500 g of soil
Activity against Pratylenchus sp., number of nematodes, 30 d (Pratylenchus sp.): 371.2 nematodes in 500 g of soil
Activity against Pratylenchus sp., number of nematodes, 60 d (Pratylenchus sp.): 454 nematodes in 500 g of soil
Activity against Pratylenchus sp., number of nematodes, 0 d (Pratylenchus sp.): 826 nematodes in 500 g of soil
Activity against Mesocriconema xenoplax, number of nematodes, 30 d (Mesocriconema xenoplax): 861.2 nematodes in 500 g of soil
Activity against Mesocriconema xenoplax, number of nematodes, 60 d (Mesocriconema xenoplax): 942.8 nematodes in 500 g of soil
Activity against Mesocriconema xenoplax, number of nematodes, 0 d (Mesocriconema xenoplax): 1817 nematodes in 500 g of soil
Treat Pi (initial population before treatment) ([1]; Volkamer lemon seedlings in pots, before treatment): 2412.5 juvenile and male nematodes per 100 cm^2 soil and 2100.0 juvenile and male nematodes per 100 cm^2 soil and 1700.0 juvenile and male nematodes per 100 cm^2 soil and 9237.5 juvenile and male nematodes per 100 cm^2 soil and 4180.0 juvenile and male nematodes per 100 cm^2 soil and 400.0 juvenile and male nematodes per 100 cm^2 soil and 4250.0 juvenile and male nematodes per 100 cm^2 soil (2×) and 1625.0 juvenile and male nematodes per 100 cm^2 soil and 125.0 juvenile and male nematodes per 100 cm^2 soil (2×) and 2190.0 juvenile and male nematodes per 100 cm^2 soil and 210.0 juvenile and male nematodes per 100 cm^2 soil and 2490.0 juvenile and male nematodes per 100 cm^2 soil and 250.0 juvenile and male nematodes per 100 cm^2 soil
Treat Pf (final population one month post treatment) ([1]; (I-2) SC 240 2.6 ml/l plus MSO foliar, repeated after 14 days, one month post treatment): 168.83 juvenile and male nematodes per 100 cm^2 soil and 519.74 juvenile and 534.25 juvenile and 1440.00 juvenile and 2753.33 juvenile and 336.84 juvenile and 708.33 juvenile and 638.16 juvenile and 87.21 juvenile and 1803.37 juvenile and 1402.78 juvenile and 60.81 juvenile and 1448.86 juvenile and 86.21 juvenile and 54.35 juvenile
Treat Pf2 (final population two months post treatment) ([1]; (I-2) SC 240 2.6 ml/l plus MSO foliar, repeated after 14 days, two months post treatment): 181.82 juvenile and male nematodes per 100 cm^2 soil and 380.95 juvenile and 338.71 juvenile and 1207.55 juvenile and 7807.69 juvenile and 347.46 juvenile and 1908.33 juvenile and 4122.22 juvenile and 175.44 juvenile and 1409.84 juvenile and 3205.36 juvenile and 92.59 juvenile and 1481.13 juvenile and 551.02 juvenile and 531.25 juvenile

CCOP(=O)(SC(C)CC)N1CCSC1=O (stereo not drawn) [Fosthiazate, reference compound]
Galling index (Meloidogyne arenaria; [2]): 5.3
Number of eggs/root system 78 d after first treatment (Meloidogyne arenaria; [3]): 453,500 eggs/root system
Appearance of root system (galls, egg masses, rot) (Meloidogyne arenaria; preventive treatment): darkened decaying roots with numerous galls and egg masses

Source: patent US20100311801A1, “USE OF TETRAMIC ACID DERIVATIVES FOR CONTROLLING NEMATODES” (priority 2007, published 2010)
